Laboratory results as given in patent US20090099029A1, “Methods and substrates for conducting assays” (Invitrogen Corporation, priority 2005, published 2009).
Read-outs that look alike come from different tables or passages of the source.

Assays:
Experiment in all cases: Further analysis of a plurality of inhibitors and a plurality of kinases (Table 5 inhibition results)
Type in all cases: biochemical
Design in all cases: scale not given here
kinases of Table 5 [1] = molecular target: kinases of Table 5 (Homo sapiens, UniProt Q8IU85); settings: inhibitor 100 uM; for Inhibition level: kinase LOC57118; for Inhibition Results (Level): kinase LOC57118 (Part II, plate D2, Domain 1)
kinases of Table 5 (Homo sapiens, UniProt Q8IU85), sequence (Q8IU85 whole entry): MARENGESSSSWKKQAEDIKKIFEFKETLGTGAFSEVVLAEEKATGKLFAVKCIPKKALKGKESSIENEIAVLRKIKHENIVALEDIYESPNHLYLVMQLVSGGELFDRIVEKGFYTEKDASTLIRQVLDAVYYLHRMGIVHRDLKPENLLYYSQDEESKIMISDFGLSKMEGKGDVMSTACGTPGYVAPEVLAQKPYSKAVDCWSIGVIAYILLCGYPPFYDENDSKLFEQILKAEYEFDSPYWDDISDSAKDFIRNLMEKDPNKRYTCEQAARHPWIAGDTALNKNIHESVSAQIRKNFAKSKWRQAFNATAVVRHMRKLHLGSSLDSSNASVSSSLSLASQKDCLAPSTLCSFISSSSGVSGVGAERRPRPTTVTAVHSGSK
Source text: (§1) The wash solution is then discarded.

kinases of Table 5 [2] = molecular target: kinases of Table 5 (Homo sapiens, UniProt P06241)
kinases of Table 5 (Homo sapiens, UniProt P06241), sequence (P06241 whole entry): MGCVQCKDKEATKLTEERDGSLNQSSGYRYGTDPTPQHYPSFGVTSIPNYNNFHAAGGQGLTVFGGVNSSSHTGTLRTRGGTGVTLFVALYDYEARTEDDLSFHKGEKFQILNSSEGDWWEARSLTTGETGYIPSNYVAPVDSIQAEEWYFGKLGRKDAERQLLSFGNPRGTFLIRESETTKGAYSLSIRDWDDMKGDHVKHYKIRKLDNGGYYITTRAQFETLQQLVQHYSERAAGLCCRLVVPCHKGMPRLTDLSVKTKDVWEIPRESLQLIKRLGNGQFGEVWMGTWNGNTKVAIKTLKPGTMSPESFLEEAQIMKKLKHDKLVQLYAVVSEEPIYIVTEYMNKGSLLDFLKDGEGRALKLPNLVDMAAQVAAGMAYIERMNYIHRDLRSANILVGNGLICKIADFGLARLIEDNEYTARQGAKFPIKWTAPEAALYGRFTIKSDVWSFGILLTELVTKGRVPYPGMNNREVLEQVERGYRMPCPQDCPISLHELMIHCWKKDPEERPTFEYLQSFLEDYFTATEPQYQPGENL
Source text: as §1

kinases of Table 5 [3] = molecular target: T1, kinases of Table 5 (Homo sapiens, UniProt O43318); settings: kinase MAP3K7 (Part I, plate G9, Domain 0)
T1 sequence (O43318 1-606): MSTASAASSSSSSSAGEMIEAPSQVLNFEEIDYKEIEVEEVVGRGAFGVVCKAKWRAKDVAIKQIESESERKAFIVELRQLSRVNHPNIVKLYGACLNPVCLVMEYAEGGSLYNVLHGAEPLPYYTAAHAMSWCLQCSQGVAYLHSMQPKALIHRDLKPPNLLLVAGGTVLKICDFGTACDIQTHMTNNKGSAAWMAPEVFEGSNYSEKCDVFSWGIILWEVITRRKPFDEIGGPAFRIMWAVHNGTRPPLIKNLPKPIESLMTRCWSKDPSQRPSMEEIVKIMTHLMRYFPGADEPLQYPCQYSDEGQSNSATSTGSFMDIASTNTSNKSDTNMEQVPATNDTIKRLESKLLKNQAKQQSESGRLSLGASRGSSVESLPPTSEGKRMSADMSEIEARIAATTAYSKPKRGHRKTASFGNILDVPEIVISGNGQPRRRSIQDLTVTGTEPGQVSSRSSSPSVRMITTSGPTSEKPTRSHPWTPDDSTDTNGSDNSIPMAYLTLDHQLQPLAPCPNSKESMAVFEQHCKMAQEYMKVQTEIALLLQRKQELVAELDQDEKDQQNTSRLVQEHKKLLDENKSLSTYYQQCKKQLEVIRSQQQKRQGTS
Source text: as §1

kinases of Table 5 [4] = molecular target: T2, kinases of Table 5 (Homo sapiens, UniProt Q92630); settings: for Inhibition level: kinase DYRK2; for Inhibition Results (Level): kinase DYRK2 (Part II, plate D11, Domain 1)
T2 sequence (Q92630 1-601): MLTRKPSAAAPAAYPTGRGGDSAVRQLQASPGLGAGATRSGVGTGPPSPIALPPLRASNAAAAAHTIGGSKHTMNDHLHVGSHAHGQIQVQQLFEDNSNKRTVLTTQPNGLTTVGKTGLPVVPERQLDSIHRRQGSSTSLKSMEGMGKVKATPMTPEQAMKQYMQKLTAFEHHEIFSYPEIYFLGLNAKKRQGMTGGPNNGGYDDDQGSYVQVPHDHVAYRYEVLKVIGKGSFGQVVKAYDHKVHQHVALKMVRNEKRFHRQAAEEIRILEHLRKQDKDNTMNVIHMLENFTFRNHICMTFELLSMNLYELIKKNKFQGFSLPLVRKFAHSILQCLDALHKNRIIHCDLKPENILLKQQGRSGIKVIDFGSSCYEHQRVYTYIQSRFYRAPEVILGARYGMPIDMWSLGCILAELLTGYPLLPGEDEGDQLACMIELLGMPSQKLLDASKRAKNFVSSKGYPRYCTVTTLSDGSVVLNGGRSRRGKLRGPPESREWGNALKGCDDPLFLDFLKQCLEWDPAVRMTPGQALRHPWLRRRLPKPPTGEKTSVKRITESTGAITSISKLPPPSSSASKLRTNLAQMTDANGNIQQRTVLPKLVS
Source text: as §1

kinases of Table 5 [5] = molecular target: T3, kinases of Table 5 (Homo sapiens, UniProt Q9UHD2); settings: kinase TBK1 (Part I, plate G1, Domain 0); inhibitor 100 uM
T3 sequence (Q9UHD2 1-729): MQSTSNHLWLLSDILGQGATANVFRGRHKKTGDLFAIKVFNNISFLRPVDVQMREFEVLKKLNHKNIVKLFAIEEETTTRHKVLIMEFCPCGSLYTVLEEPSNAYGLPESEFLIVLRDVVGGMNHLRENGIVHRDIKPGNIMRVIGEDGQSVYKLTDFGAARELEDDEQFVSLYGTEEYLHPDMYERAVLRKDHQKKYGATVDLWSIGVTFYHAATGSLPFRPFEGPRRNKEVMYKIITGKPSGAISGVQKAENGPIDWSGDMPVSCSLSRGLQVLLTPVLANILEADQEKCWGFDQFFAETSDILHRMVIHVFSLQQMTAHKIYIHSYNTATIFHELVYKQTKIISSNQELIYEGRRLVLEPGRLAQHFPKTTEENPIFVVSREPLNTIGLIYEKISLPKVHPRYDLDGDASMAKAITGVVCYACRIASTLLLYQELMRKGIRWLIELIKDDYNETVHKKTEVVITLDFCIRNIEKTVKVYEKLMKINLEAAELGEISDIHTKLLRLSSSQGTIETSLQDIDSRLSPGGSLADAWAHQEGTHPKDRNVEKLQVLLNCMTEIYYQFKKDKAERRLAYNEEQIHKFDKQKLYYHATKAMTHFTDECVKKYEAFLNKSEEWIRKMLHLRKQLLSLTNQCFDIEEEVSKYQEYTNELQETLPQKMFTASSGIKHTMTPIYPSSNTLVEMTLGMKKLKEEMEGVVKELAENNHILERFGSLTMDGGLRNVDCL
Source text: as §1

kinases of Table 5 [6] = molecular target: T4, kinases of Table 5 (Homo sapiens, UniProt Q99759); settings: kinase MAP3K3 (Part I, plate A1, Domain 0)
T4 sequence (Q99759 1-626): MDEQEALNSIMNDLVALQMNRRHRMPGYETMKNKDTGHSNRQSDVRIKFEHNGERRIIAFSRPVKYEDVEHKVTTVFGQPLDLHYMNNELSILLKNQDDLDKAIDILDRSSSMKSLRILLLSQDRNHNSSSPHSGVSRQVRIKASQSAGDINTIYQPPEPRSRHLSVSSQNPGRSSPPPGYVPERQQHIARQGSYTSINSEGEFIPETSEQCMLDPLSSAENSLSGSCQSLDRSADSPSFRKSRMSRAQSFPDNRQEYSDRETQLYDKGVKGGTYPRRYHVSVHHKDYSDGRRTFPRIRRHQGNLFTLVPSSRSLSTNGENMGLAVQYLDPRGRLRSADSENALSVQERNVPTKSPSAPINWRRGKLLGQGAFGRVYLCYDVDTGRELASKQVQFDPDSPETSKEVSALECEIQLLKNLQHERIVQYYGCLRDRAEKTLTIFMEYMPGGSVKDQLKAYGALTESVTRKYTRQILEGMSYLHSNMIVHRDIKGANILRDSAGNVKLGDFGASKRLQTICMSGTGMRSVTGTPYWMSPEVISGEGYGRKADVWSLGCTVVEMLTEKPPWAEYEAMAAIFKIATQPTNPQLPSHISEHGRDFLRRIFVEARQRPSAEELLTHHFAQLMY
Source text: as §1

[7] = kinase FYN (Part I, plate A4, Domain 0), inhibitor 100 uM

| Inhibition level (kinases of Table 5 [1]) | Inhibition Results (Level) (kinases of Table 5 [2]; [7]) | Inhibition Results (Level) (kinases of Table 5 [3]; inhibitor 100 uM) | Inhibition level (kinases of Table 5 [4]; inhibitor 100 uM) | Inhibition Results (Level) (kinases of Table 5 [5]) | Inhibition Results (Level) (kinases of Table 5 [6]; inhibitor 100 uM) | Inhibition Results (Level) (kinases of Table 5 [2]; kinase FYN (Part I, plate A4, Domain 0), inhibitor <3.7 mM) | Inhibition Results (Level) (kinases of Table 5 [3]; inhibitor <3.7 mM) | Inhibition level (kinases of Table 5 [4]; concentration not given) | Inhibition Results (Level) (kinases of Table 5 [6]; inhibitor <3.7 mM) | Inhibition Results (Level) (kinases of Table 5 [2]; kinase FYN (Part I, plate A4, Domain 0), inhibitor 90 uM) | Inhibition Results (Level) (kinases of Table 5 [3]; inhibitor 90 uM) | Inhibition Results (Level) (kinases of Table 5 [6]; inhibitor 90 uM) | SMILES | Inhibition Results (Level) (kinases of Table 5 [1]) | Inhibition Results (Level) (kinases of Table 5 [4]; inhibitor 100 uM) | Inhibition Results (Level) (kinases of Table 5 [2]) | Inhibition Results (Level) (kinases of Table 5 [6]; inhibitor 21.5 uM) |
| --- | --- | --- | --- | --- | --- | --- | --- | --- | --- | --- | --- | --- | --- | --- | --- | --- | --- |
| 0 | 2 | 0 | 2 | 2 | 2 |  |  |  |  |  |  |  | COc1cc2ncnc(Nc3cccc(Cl)c3)c2cc1OC [AG 1478] |  |  |  |  |
| 0 | 2 | 1 | 2 | 2 | 2 | 1 | 0 | 1 | 2 |  |  |  | O=c1c(-c2ccc(O)cc2)coc2cc(O)cc(O)c12 [Genistein] |  |  |  |  |
|  | 2 | 2 |  | 2 | 2 |  |  |  |  |  |  |  | O=S(=O)(NCCNC/C=C/c1ccc(Br)cc1)c1cccc2cnccc12 [H-89] | 1 | 2 |  |  |
| 0 |  | 2 | 2 | 1 | 2 |  |  |  |  |  |  |  | CC(C)(C)n1nc(-c2ccc(Cl)cc2)c2c(N)ncnc21 [PP2] |  |  |  |  |
| 0 | 2 | 2 | 2 | 2 | 0 |  |  | 0 |  | 0 | 2 | 2 | Cn1cc(C2=C(c3cn(CCCSC(=N)N)c4ccccc34)C(=O)NC2=O)c2ccccc21 [Ro-31-8220] |  |  |  |  |

The next lines start with the compound.

| SMILES | Inhibition level (kinases of Table 5 [1]) | Inhibition Results (Level) (kinases of Table 5 [2]; [7]) | Inhibition Results (Level) (kinases of Table 5 [3]; inhibitor 100 uM) | Inhibition level (kinases of Table 5 [4]; inhibitor 100 uM) | Inhibition Results (Level) (kinases of Table 5 [5]) | Inhibition Results (Level) (kinases of Table 5 [6]; inhibitor 100 uM) | Inhibition Results (Level) (kinases of Table 5 [2]; kinase FYN (Part I, plate A4, Domain 0), inhibitor <3.7 mM) | Inhibition Results (Level) (kinases of Table 5 [3]; inhibitor <3.7 mM) | Inhibition level (kinases of Table 5 [4]; concentration not given) | Inhibition Results (Level) (kinases of Table 5 [6]; inhibitor <3.7 mM) | Inhibition Results (Level) (kinases of Table 5 [2]; kinase FYN (Part I, plate A4, Domain 0), inhibitor 90 uM) | Inhibition Results (Level) (kinases of Table 5 [3]; inhibitor 90 uM) | Inhibition Results (Level) (kinases of Table 5 [6]; inhibitor 90 uM) | Inhibition Results (Level) (kinases of Table 5 [1]) | Inhibition Results (Level) (kinases of Table 5 [4]; inhibitor 100 uM) | Inhibition Results (Level) (kinases of Table 5 [2]) | Inhibition Results (Level) (kinases of Table 5 [6]; inhibitor 21.5 uM) |
| --- | --- | --- | --- | --- | --- | --- | --- | --- | --- | --- | --- | --- | --- | --- | --- | --- | --- |
| N#C/C(=C/c1ccc(O)c(O)c1)C(=O)NCc1ccccc1 [AG 490] | 1 | 2 | 0 | 2 | 2 | 2 |  |  |  |  |  |  |  |  |  |  |  |
| O=c1c(O)c(-c2ccc(O)c(O)c2)oc2cc(O)cc(O)c12 [Quercetin] |  |  |  |  | 0 | 0 |  |  |  |  |  |  |  | 0 | 2 |  |  |
| CC(=O)c1c(O)c(C)c(O)c(Cc2c(O)c3c(c(C(=O)/C=C/c4ccccc4)c2O)OC(C)(C)C=C3)c1O [Rottlerin (Mallotoxin)] |  | 2 | 2 |  | 1 | 2 |  |  |  |  |  |  |  | 0 | 2 |  |  |
| CN[C@@H]1C[C@H]2O[C@@](C)([C@@H]1OC)n1c3ccccc3c3c4c(c5c6ccccc6n2c5c31)C(=O)NC4 [Staurosporine] |  |  |  |  |  |  |  |  |  |  |  |  |  |  |  | 2 | 2 |
